In patent US8658646B2, “Pyrrolopyrazine kinase inhibitors” (Hoffmann-LaRoche Inc., priority 2011, dated 2014):
Structures can show the parent of a compound that is named as a salt.

Key:
[1] = biological target: T1, JAK3: Recombinant human kinase domain (Homo sapiens, UniProt P52333); test: Determination of IC50 of Janus Kinase (JAK) inhibition, radioactive end-point 33P-ATP assay, JAK3; type: biochemical; details: ATP 1.5 uM, peptide 50 uM, 20 minutes, read-out: JAK3-INHIB-DR/v1~NO ADDITIVE~Enzyme_Conc = 100
T1 construct: JAK3: Recombinant human kinase domain from Millipore (Cat #14-629) or prepared; purchased Millipore 14-629
T1 sequence (P52333 822-1111 limits assumed): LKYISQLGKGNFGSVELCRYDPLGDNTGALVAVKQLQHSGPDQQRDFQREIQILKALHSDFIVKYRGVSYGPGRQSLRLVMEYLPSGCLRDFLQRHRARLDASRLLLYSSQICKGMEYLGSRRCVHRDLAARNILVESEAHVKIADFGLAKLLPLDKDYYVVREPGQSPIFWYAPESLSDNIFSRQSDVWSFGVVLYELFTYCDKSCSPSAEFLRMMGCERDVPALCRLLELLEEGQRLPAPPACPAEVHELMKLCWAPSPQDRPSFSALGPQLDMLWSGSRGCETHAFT
Description: Determination of IC50 of Janus Kinase (JAK) Inhibition:
Assay conditions used are described below: • Assay Buffer: JAK Kinase Buffer: 50 mM Hepes [pH 7.2], 10 mM MgCl2, 1 mM DTT, 1 mg/ml BSA. The assay was carried out in this buffer. • Assay Format The kinase activity of all three JAK kinases was measured using a radioactive, end-point assay and with trace amounts of ^33P-ATP. The assays were carried out in 96-well polypropylene plates. Experimental Method:
All concentrations were final in the reaction mixture and all incubations were carried at room temperature. […] Final concentration of DMSO in the reaction was 10%. • 2) Compounds were preincubated with enzyme (0.5 nM JAK3 (commercially available), 0.2 nM JAK3 (prepared), 1 nM JAK2, 5 nM JAK1) for 10 minutes. • 3) Reactions were initiated by the addition of a cocktail of the two substrates (ATP and peptide premixed in the JAK Kinase Buffer). […] JAK1 assay was carried out at an ATP concentration of 10 uM and a peptide concentration of 50 uM. • 4) The duration of the assay for JAK2 and JAK3 is 20 minutes. JAK1 assay was carried out for 40 minutes. With all three enzymes, reactions were terminated by the addition of 0.5M EDTA to a final concentration of 100 mM. • 5) 25 ul of terminated reactions were transferred to 150 ul of a 7.5% (v/v) slurry of streptavidin-coated sepharose beads in MgCl2- and CaCl2-free 1× Phosphate Buffered Saline containing 50 mM of EDTA in 96-well, 1.2 um MultiScreen-BV filter plates. • 6) After a 30-minute incubation, the beads were washed under vacuum with the following buffers: • a. 3 to 4 washes with 200 ul of 2M NaCl. • b. 3 to 4 washes with 200 ul of 2M NaCl plus 1% (v/v) phosphoric acid. • c. 1 wash with water. • 7) Washed plates were dried in a 60° C. oven for between 1 to 2 hours. • 8) 70 ul of Microscint 20 scintillation fluid was added to each well of filter plates and after at least 30 minutes of incubation, radioactive counts were measured in a Perkinelmer microplate scintillation counter.

[2] = biological target: T2, recombinant human SYK360-635 (Homo sapiens, UniProt P43405); test: Determination of IC50 of Spleen Tyrosine Kinase (SYK) inhibition, 33P ATP filtration assay; type: biochemical; details: SYK aa 360-635 0.5 nM; ATP 20 μM, peptide 5 μM, 0.1% BSA; read-out: SYK_ENZYME_FILTRATION/v1, BSA
T2 construct: made in house

Row | SMILES | IC50 [1] | IC50 [2]
1 | Cn1nc(-c2cnc3[nH]cc(C(=O)N[C@H]4CCC[C@H](C(N)=O)C4)c3n2)c2ccc(Cl)cc21 (relative stereo) [Example I-155, 2-(6-Chloro-1-methyl-1H-indazol-3-yl)-5H-pyrrolo[2,3-b]pyrazine-7-carboxylic acid (trans-3-carbamoyl-cyclohexyl)-amide] | 78.3 nM | –
2 | C[C@@H](NC(=O)c1c[nH]c2ncc(-c3nn(C)c4cc(Cl)ccc34)nc12)[C@H]1C[C@H]1C#N (single isomer, unassigned) [Example I-207] | 5.45 nM | –
3 | Cn1nc(-c2cnc3[nH]cc(C(=O)N[C@@H](C(=O)N4CCC(C#N)CC4)C4CC4)c3n2)c2ccc(Cl)cc21 [Example I-2, 2-(6-Chloro-1-methyl-1H-indazol-3-yl)-5H-pyrrolo[2,3-b]pyrazine-7-carboxylic acid [(R)-2-(4-cyano-piperidin-1-yl)-1-cyclopropyl-2-oxo-ethyl]-amide] | 0.575 nM | –
4 | Cn1nc(-c2cnc3[nH]cc(C(=O)N[C@@H](C(=O)N4CCC(C#N)CC4)C4CC4)c3n2)c2cc(Cl)ccc21 [Example I-3, 2-(5-Chloro-1-methyl-1H-indazol-3-yl)-5H-pyrrolo[2,3-b]pyrazine-7-carboxylic acid [(R)-2-(4-cyano-piperidin-1-yl)-1-cyclopropyl-2-oxo-ethyl]-amide] | 1.06 nM | –
5 | C[C@@H](NC(=O)c1c[nH]c2ncc(-c3nn(C)c4cc(Cl)c(Cl)cc34)nc12)C(=O)N1CC(C#N)C1 [Example I-6, 2-(5,6-Dichloro-1-methyl-1H-indazol-3-yl)-5H-pyrrolo[2,3-b]pyrazine-7-carboxylic acid [(R)-2-(3-cyano-azetidin-1-yl)-1-methyl-2-oxo-ethyl]-amide] | 1.23 nM | –
6 | Cn1nc(-c2cnc3[nH]cc(C(=O)N[C@@H](C(=O)N4CCC(C#N)CC4)C(C)(C)C)c3n2)c2cc(Cl)ccc21 [Example I-8, 2-(5-Chloro-1-methyl-1H-indazol-3-yl)-5H-pyrrolo[2,3-b]pyrazine-7-carboxylic acid [(R)-1-(4-cyano-piperidine-1-carbonyl)-2,2-dimethyl-propyl]-amide] | 2.83 nM | –
7 | Cn1nc(-c2cnc3[nH]cc(C(=O)N[C@@H](C(=O)N4CCC(C#N)CC4)C4CC4)c3n2)c2ccc(C3CC3)cc21 [Example I-9, 2-(6-Cyclopropyl-1-methyl-1H-indazol-3-yl)-5H-pyrrolo[2,3-b]pyrazine-7-carboxylic acid [(R)-2-(4-cyano-piperidin-1-yl)-1-cyclopropyl-2-oxo-ethyl]-amide] | 4.01 nM | –
8 | Cn1nc(-c2cnc3[nH]cc(C(=O)N[C@@H](C(=O)N4CCC(C#N)CC4)C4CC4)c3n2)c2c1CCCC2 [Example I-10, 2-(1-Methyl-4,5,6,7-tetrahydro-1H-indazol-3-yl)-5H-pyrrolo[2,3-b]pyrazine-7-carboxylic acid [(R)-2-(4-cyano-piperidin-1-yl)-1-cyclopropyl-2-oxo-ethyl]-amide] | 1.51 nM | –
9 | C[C@H](NC(=O)c1c[nH]c2ncc(-c3nn(C)c4ccc(Cl)cc34)nc12)C(C)(C)C [Example I-11, 2-(5-Chloro-1-methyl-1H-indazol-3-yl)-5H-pyrrolo[2,3-b]pyrazine-7-carboxylic acid ((S)-1,2,2-trimethyl-propyl)-amide] | 1.77 nM | –
10 | C[C@@H](NC(=O)c1c[nH]c2ncc(-c3nn(C)c4cc(Cl)ccc34)nc12)C(=O)N1CC(F)(F)C1 [Example I-14, 2-(6-Chloro-1-methyl-1H-indazol-3-yl)-5H-pyrrolo[2,3-b]pyrazine-7-carboxylic acid [(R)-2-(3,3-difluoro-azetidin-1-yl)-1-methyl-2-oxo-ethyl]-amide] | 27.5 nM | –
11 | C[C@@H](NC(=O)c1c[nH]c2ncc(-c3nn(C)c4cc(Cl)ccc34)nc12)C1CC1 [Example I-16, 2-(6-Chloro-1-methyl-1H-indazol-3-yl)-5H-pyrrolo[2,3-b]pyrazine-7-carboxylic acid ((R)-1-cyclopropyl-ethyl)-amide] | 4.81 nM | –
12 | C[C@@H](NC(=O)c1c[nH]c2ncc(-c3nn(C)c4cc(C(F)(F)F)ccc34)nc12)C(=O)N1CC(C#N)C1 [Example I-18, 2-(1-Methyl-6-trifluoromethyl-1H-indazol-3-yl)-5H-pyrrolo[2,3-b]pyrazine-7-carboxylic acid [(R)-2-(3-cyano-azetidin-1-yl)-1-methyl-2-oxo-ethyl]-amide] | 1.15 nM | –
13 | Cn1nc(-c2cnc3[nH]cc(C(=O)N[C@@H](C(=O)N4CCC(C#N)CC4)C(C)(C)C)c3n2)c2ccc(Cl)cc21 [Example I-19, 2-(6-Chloro-1-methyl-1H-indazol-3-yl)-5H-pyrrolo[2,3-b]pyrazine-7-carboxylic acid [(R)-1-(4-cyano-piperidine-1-carbonyl)-2,2-dimethyl-propyl]-amide] | 2.12 nM | –
14 | COCCn1nc(-c2cnc3[nH]cc(C(=O)N[C@H](C)C(=O)N4CC(C#N)C4)c3n2)c2ccc(Cl)cc21 [Example I-24, 2-[6-Chloro-1-(2-methoxy-ethyl)-1H-indazol-3-yl]-5H-pyrrolo[2,3-b]pyrazine-7-carboxylic acid [(R)-2-(3-cyano-azetidin-1-yl)-1-methyl-2-oxo-ethyl]-amide] | 2.34 nM | –
15 | CC(C)NC(=O)c1c[nH]c2ncc(-c3nn(CCCN(C)C)c4ccc(OC(F)F)cc34)nc12 [Example I-450] | – | 13.3 nM
16 | CN(C)CCCn1nc(-c2cnc3[nH]cc(C(=O)NC4(C)CC4)c3n2)c2cc(OC(F)F)ccc21 [Example I-452, 2-(5-(Difluoromethoxy)-1-(3-(dimethylamino)propyl)-1H-indazol-3-yl)-N-(1-methylcyclopropyl)-5H-pyrrolo[3,2-b]pyrazine-7-carboxamide trifluoroacetate] | – | 13.9 nM
17 | CC(C)(N)CCCn1nc(-c2cnc3[nH]cc(C(=O)NC(C)(C)C)c3n2)c2cc(OC(F)F)ccc21 [Example I-454, 2-(1-(4-Amino-4-methylpentyl)-5-(difluoromethoxy)-1H-indazol-3-yl)-N-tert-butyl-5H-pyrrolo[3,2-b]pyrazine-7-carboxamide trifluoroacetate] | – | 7.6 nM
18 | Cn1nc(-c2cnc3[nH]cc(C(=O)NC(C)(C)C)c3n2)c2cc(S(C)(=O)=O)ccc21 [Example I-461, N-tert-Butyl-2-(1-methyl-5-(methylsulfonyl)-1H-indazol-3-yl)-5H-pyrrolo[3,2-b]pyrazine-7-carboxamide] | – | 144 nM
19 | CC(O)CCn1nc(-c2cnc3[nH]cc(C(=O)NC(C)(C)CO)c3n2)c2ccc(F)cc21 (stereo not drawn) [Example I-462, 2-(6-Fluoro-1-(3-hydroxybutyl)-1H-indazol-3-yl)-N-(1-hydroxy-2-methylpropan-2-yl)-5H-pyrrolo[3,2-b]pyrazine-7-carboxamide] | – | 17.6 nM
20 | Cn1nc(-c2cnc3[nH]cc(C(=O)NCC4(O)CNC4)c3n2)c2ccc(F)cc21 [Example I-463, 2-(6-Fluoro-1-methyl-1H-indazol-3-yl)-N-((3-hydroxyazetidin-3-yl)methyl)-5H-pyrrolo[3,2-b]pyrazine-7-carboxamide trifluoroacetate] | – | 5.42 nM

Now from value to molecule:

Row | IC50 [1] | IC50 [2] | SMILES
21 | 17.6 nM | – | C[C@@H](NC(=O)c1c[nH]c2ncc(-c3nn(C)c4cc(Cl)ccc34)nc12)[C@@H]1C[C@@H]1C#N (single isomer, unassigned) [Example I-206]
22 | 1.72 nM | – | Cn1nc(-c2cnc3[nH]cc(C(=O)N[C@@H](C(=O)N4CCC(C#N)CC4)C4CC4)c3n2)c2ccccc21 [Example I-1]
23 | 19.2 nM | – | C[C@@H](NC(=O)c1c[nH]c2ncc(-c3nn(C)c4cc(Cl)ccc34)nc12)C(C)(C)O [Example I-12, 2-(6-Chloro-1-methyl-1H-indazol-3-yl)-5H-pyrrolo[2,3-b]pyrazine-7-carboxylic acid ((R)-2-hydroxy-1,2-dimethyl-propyl)-amide]
24 | 31.1 nM | – | C[C@@H](NC(=O)c1c[nH]c2ncc(-c3nn(C)c4c3CC(C)(C)CC4)nc12)C(=O)N1CC(C#N)C1 [Example I-13]
25 | 13.6 nM | – | Cn1nc(-c2cnc3[nH]cc(C(=O)N[C@@H]4CCCN(S(C)(=O)=O)C4)c3n2)c2ccc(Cl)cc21 [Example I-15, 2-(6-Chloro-1-methyl-1H-indazol-3-yl)-5H-pyrrolo[2,3-b]pyrazine-7-carboxylic acid ((R)-1-methanesulfonyl-piperidin-3-yl)-amide]
26 | 0.59 nM | – | C[C@@H](NC(=O)c1c[nH]c2ncc(-c3n[nH]c4cc(Cl)ccc34)nc12)C(=O)N1CC(C#N)C1 [Example I-23, 2-(6-Chloro-1H-indazol-3-yl)-5H-pyrrolo[2,3-b]pyrazine-7-carboxylic acid [(R)-2-(3-cyano-azetidin-1-yl)-1-methyl-2-oxo-ethyl]-amide]
27 | – | 46.9 nM | Cn1nc(-c2cnc3[nH]cc(C(=O)NC(C)(C)C)c3n2)c2cc(OCCCC(C)(C)N)ccc21 [Example I-449, 2-(5-(4-Amino-4-methylpentyloxy)-1-methyl-1H-indazol-3-yl)-N-tert-butyl-5H-pyrrolo[3,2-b]pyrazine-7-carboxamide 2,2,2-trifluoroacetate]
28 | – | 4.8 nM | Cn1ncc2c(-c3cnc4[nH]cc(C(=O)NC(C)(C)C)c4n3)cccc21 [Example I-451, N-tert-Butyl-2-(1-methyl-1H-indazol-4-yl)-5H-pyrrolo[3,2-b]pyrazine-7-carboxamide hydrochloride]
29 | – | 85.7 nM | CCNC(=O)c1c[nH]c2ncc(-c3nn(CCCN(C)C)c4ccc(OC(F)F)cc34)nc12 [Example I-453, 2-(5-(Difluoromethoxy)-1-(3-(dimethylamino)propyl)-1H-indazol-3-yl)-N-ethyl-5H-pyrrolo[3,2-b]pyrazine-7-carboxamide trifluoroacetate]
30 | – | 15.1 nM | CC(C)c1ccc2c(c1)c(-c1cnc3[nH]cc(C(=O)NC(C)(C)C)c3n1)nn2C [Example I-458, N-tert-Butyl-2-(5-isopropyl-1-methyl-1H-indazol-3-yl)-5H-pyrrolo[2,3-b]pyrazine-7-carboxamide]
